The text below walks through data of patent US10428051B2 (priority 2015, dated 2019).

SMILES strings stand for the structures.

The target in the experiment is human σ1 receptor (Homo sapiens, UniProt Q99720). The experiment can be described thus: biochemical. Type of experiment: binding. Further details: μ and σ1 dual (binding to the σ1 receptor and the μ-opioid receptor expressed as Ki): key to the marks not given beside the values.
Chain of human σ1 receptor (Q99720 whole entry): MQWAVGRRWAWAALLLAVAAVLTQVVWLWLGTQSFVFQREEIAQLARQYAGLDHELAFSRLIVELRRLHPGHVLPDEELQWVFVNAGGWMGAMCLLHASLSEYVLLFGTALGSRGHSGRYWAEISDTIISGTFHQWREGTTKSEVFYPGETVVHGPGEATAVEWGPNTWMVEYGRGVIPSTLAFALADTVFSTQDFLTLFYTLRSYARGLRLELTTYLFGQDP
The compound `CCOCCN1CCN(C2(CN(C(=O)CC)c3cccc(C(F)(F)F)n3)CCSCC2)CC1` [Example 205, N-((4-(4-(2-ethoxyethyl)piperazin-1-yl)tetrahydro-2H-thiopyran-4-yl)methyl)-N-(6-(trifluoromethyl)pyridin-2-yl)propionamide] registered a Ki below 500 nM.

For `CC(C)(CN(C(=O)c1ccco1)c1ccccc1)N1CCN(CCc2ccccc2)CC1` [Example 44, N-(2-methyl-2-(4-phenethylpiperazin-1-yl)propyl)-N-phenylfuran-2-carboxamide], the inhibition constant Ki was below 100 nM.

For the compound `CCC(=O)N(CC1(N2CCN(CC(C)C)CC2)CCOCC1)c1ncccc1C(F)(F)F` [Example 63, N-((4-(4-isobutylpiperazin-1-yl)tetrahydro-2H-pyran-4-yl)methyl)-N-(3-(trifluoromethyl)pyridin-2-yl)propionamide], the “μ and σ1 dual (binding to the σ1 receptor and the μ-opioid receptor expressed as Ki)” value (shortened to “μ and σ1 dual”) is listed as “++”.

As to `CCOCCN1CCN(C2(CN(C(=O)CC)c3ccccn3)CCOC(C)(C)C2)CC1` (stereo not drawn) [Example 165, N-((4-(4-(2-ethoxyethyl)piperazin-1-yl)-2,2-dimethyltetrahydro-2H-pyran-4-yl)methyl)-N-(pyridin-2-yl)propionamide], the Ki was above 500 nM.

Compound `CCC(=O)N(CC1(N2CCN(Cc3ccccc3)CC2)CCOCC1)c1ccccc1F` [Example 4, N-((4-(4-benzylpiperazin-1-yl)tetrahydro-2H-pyran-4-yl)methyl)-N-(2-fluorophenyl)propionamide] registered a Ki below 100 nM.

The compound `CCC(=O)N(CC1(N2CCN(Cc3ccccc3)CC2)CCOCC1)c1cncc(F)c1` [Example 10, N-((4-(4-benzylpiperazin-1-yl)tetrahydro-2H-pyran-4-yl)methyl)-N-(5-fluoropyridin-3-yl)propionamide] displayed an inhibitory constant (Ki) below 500 nM.

Turning to `CCC(=O)N(CC1(N2CCN(Cc3ccccc3)CC2)CCOCC1)c1ncccc1F` [Example 82, N-((4-(4-benzylpiperazin-1-yl)tetrahydro-2H-pyran-4-yl)methyl)-N-(3-fluoropyridin-2-yl)propionamide], the Ki was below 100 nM.

Consider `CCC(=O)N(CC1(N2CCN(Cc3ccccc3)CC2)CC1)c1ccncc1` [Example 31, N-((1-(4-benzylpiperazin-1-yl)cyclopropyl)methyl)-N-(pyridin-4-yl)propionamide], for which the “μ and σ1 dual” value was “++”.

`CCC(=O)N(CC)CC1(N2CCN(Cc3ccccc3)CC2)CCOCC1` [Example 99, N-((4-(4-benzylpiperazin-1-yl)tetrahydro-2H-pyran-4-yl)methyl)-N-ethylpropionamide]: the “μ and σ1 dual” value is on record as “++”.

Regarding `CCC(=O)N(CC(C)(C)N1CCN(CCc2ncccc2F)CC1)c1ccccn1` [Example 70, N-(2-(4-(2-(3-fluoropyridin-2-yl)ethyl)piperazin-1-yl)-2-methylpropyl)-N-(pyridin-2-yl)propionamide], the “μ and σ1 dual” value is given as “++”.

Regarding `O=C(c1cccs1)N(CC1(N2CCN(Cc3ccccc3)CC2)CC1)c1ccccn1` [Example 47, N-((1-(4-benzylpiperazin-1-yl)cyclopropyl)methyl)-N-(pyridin-2-yl)thiophene-2-carboxamide], the “μ and σ1 dual” value is “++”.

The compound `CCC(=O)N(CC1(N2CCN(CCOC(F)(F)F)CC2)CCOCC1)c1cccc(C(F)(F)F)n1` [Example 141, N-((4-(4-(2-(trifluoromethoxy)ethyl)piperazin-1-yl)tetrahydro-2H-pyran-4-yl)methyl)-N-(6-(trifluoromethyl)pyridin-2-yl)propionamide] registered a Ki below 500 nM.

In the case of `CCOCCN1CCN(C2(CN(C(=O)CC)c3cccc(C(F)(F)F)n3)CCC2)CC1` [Example 202, N-((1-(4-(2-ethoxyethyl)piperazin-1-yl)cyclobutyl)methyl)-N-(6-(trifluoromethyl)pyridin-2-yl)propionamide], the Ki was below 500 nM.

`CCC(=O)N(CC1(N2CCN(Cc3ccccc3F)CC2)CC1)c1ccccc1` [Example 118, N-((1-(4-(2-fluorobenzyl)piperazin-1-yl)cyclopropyl)methyl)-N-phenylpropionamide]: the Ki was below 100 nM.

`CCC(=O)N(CC1(N2CCN(CC(C)C)CC2)CCOC(C)(C)C1)c1cccc(C#N)n1` (stereo not drawn) [Example 87, N-(6-cyanopyridin-2-yl)-N-((4-(4-isobutylpiperazin-1-yl)-2,2-dimethyltetrahydro-2H-pyran-4-yl)methyl)propionamide] yielded a Ki above 500 nM.

In turn, `CCC(=O)N(CC1(N2CCN(CC(C)(C)F)CC2)CCOCC1)c1cccc(C(F)(F)F)n1` [Example 190, N-((4-(4-(2-fluoro-2-methylpropyl)piperazin-1-yl)tetrahydro-2H-pyran-4-yl)methyl)-N-(6-(trifluoromethyl)pyridin-2-yl)propionamide] returned a Ki below 500 nM.

For `CCC(=O)N(CC1(N2CCN(Cc3ccccc3)CC2)CCC1)c1cccc(C(F)(F)F)n1` [Example 197, N-((1-(4-benzylpiperazin-1-yl)cyclobutyl)methyl)-N-(6-(trifluoromethyl)pyridin-2-yl)propionamide], the Ki is below 100 nM.

`CCC(=O)N(CC1(N2CCN(Cc3ccccc3)CC2)CCOCC1)c1cccc(F)c1` [Example 5, N-((4-(4-benzylpiperazin-1-yl)tetrahydro-2H-pyran-4-yl)methyl)-N-(3-fluorophenyl)propionamide] had a Ki below 100 nM.

Consider `CCC(=O)N(CC1(N2CCN(CCOC(C)C)CC2)CCOC2(CCCC2)C1)c1cccc(C(F)(F)F)n1` (stereo not drawn) [Example 174, N-((9-(4-(2-isopropoxyethyl)piperazin-1-yl)-6-oxaspiro[4.5]decan-9-yl)methyl)-N-(6-(trifluoromethyl)pyridin-2-yl)propionamide], for which the Ki is below 500 nM.

As to `CCC(=O)N(CC(C)(C)N1CCN(CCc2ccccc2F)CC1)c1ncccc1F` [Example 69, N-(2-(4-(2-fluorophenethyl)piperazin-1-yl)-2-methylpropyl)-N-(3-fluoropyridin-2-yl)propionamide], the “μ and σ1 dual” value is “++”.

Turning to `CCC(=O)N(CC1(N2CCN(Cc3ccncc3)CC2)CCOCC1)c1ccccc1` [Example 106, N-phenyl-N-((4-(4-(pyridin-4-ylmethyl)piperazin-1-yl)tetrahydro-2H-pyran-4-yl)methyl)propionamide], the “μ and σ1 dual” value is listed as “++”.

As for `CCC(=O)N(CC1(N2CCN(CCOCC(C)(C)O)CC2)CCOCC1)c1cccc(C(F)(F)F)n1` [Example 186, N-((4-(4-(2-(2-hydroxy-2-methylpropoxy)ethyl)piperazin-1-yl)tetrahydro-2H-pyran-4-yl)methyl)-N-(6-(trifluoromethyl)pyridin-2-yl)propionamide], the “μ and σ1 dual” value was “++”.

For the compound `CCC(=O)N(CC1(N2CCN(Cc3ccccc3)CC2)CC1)c1nccs1` [Example 92, N-((1-(4-benzylpiperazin-1-yl)cyclopropyl)methyl)-N-(thiazol-2-yl)propionamide], the Ki was below 500 nM.

`CCC(=O)N(CC1(N2CCN(CCO)CC2)CCOCC1)c1cccc(C(F)(F)F)n1` [Example 148, N-((4-(4-(2-hydroxyethyl)piperazin-1-yl)tetrahydro-2H-pyran-4-yl)methyl)-N-(6-(trifluoromethyl)pyridin-2-yl)propionamide] returned a Ki above 500 nM.
